Reference: US7709458B2, “Method for inhibiting cancer cell proliferation or increasing cancer cell apoptosis” (priority 2004, dated 2010)

Legend:
[1] = test system: SH-SY5Y human neuroblastoma cells; test: cells; type: cell-based
Procedure: Toxicity assays in human neuroblastoma cells. SH-SY5Y human neuroblastoma cells were cultured in DMEM/Ham's F-12 (1:1) media, supplemented with 10% FBS, penicillin (100 IU/ml), streptomycin (100 μg/ml), and L-glutamine (2 mM); the cell culture medium was replaced every two days. Cultures were maintained at 37° C. in 95% air-5% CO2 in a humidified incubator. A standard curve established the linear range for the assay of approximately 1000-7000 cells/well for a 96 well plate. All data reported were within this range. MTS assay concentration-response curves were performed as follows: 1800 cells/well were plated in 96 well plates. After 30 h, media was changed to include no toxicant (control) or toxicant at varying concentrations. The cells were then exposed for 48 h, the media was removed, and 100 μl minimum essential medium without phenol red and 20 μl MTS reagent were added. Cells were incubated, and 2 h later, plates were measured at 490 nm on an ELx 808 microplate reader (Bio-Tek Instruments, Winooski, Vt.). EC50 values were determined via nonlinear regression using Prism software (GraphPad, San Diego, Calif.).
Cytotoxicity tests in human neuroblastoma cells. The 3-(4,5-dimethylthiazol-2-yl)-5-(3-carboxymethoxyphenyl)-2-(4-sulfophenyl)-2H-tetrazolium (MTS) assay is a quantitative colorimetric assay for measurement of cellular proliferation, cytotoxicity and viability. MTS is converted to a formazan product only in living cells. MTS is similar to 3-(4,5-dimethylthiazol-2-yl)-2,5-diphenyltetrazolium bromide (MTT), which is widely used in cytotoxicity assays. The difference is that the formazan product for the MTS reagent is soluble in media while the MTT reagent is not.
To study the cytotoxicity of c-di-GMP in SH-SY5Y human neuroblastoma cells, increasing concentrations (0.0001-1000 μM) were added to the culture medium and cell viability was assessed by the MTS assay. […] Up to 100 μM, there was no effect on cell viability; at greater concentrations, a sharp decline in cell viability was observed.

[2] = test system: CD1 mice; test: Lethality in CD1 mice; settings: 50 μl of 200 μM c-di-GMP, after 24 h

**Q.** For `Nc1nc(=O)c2ncn([C@@H]3OC4COP(=O)(O)O[C@H]5[C@@H](O)[C@H](n6cnc7c(=O)nc(N)[nH]c76)O[C@@H]5COP(=O)(O)OC4C3O)c2[nH]1` (stereo partly shown) [c-di-GMP, Bis(3′-->5′)-cyclic diguanylic acid], which “cytotoxicity on human neuroblastoma cells” value [1] is on record?
**A.** no cytotoxicity

**Q.** What about the EC50 ([1]; Homo sapiens, SH-SY5Y cells, 48 hr exposure, MTS assay, read-out: EC50 for decrease of cell viability) of the same compound?
**A.** 350 µM

**Q.** What about the “concentration with no effect on cell viability” value ([1]; human, 48 h) of the same compound?
**A.** Up to 100 μM

**Q.** And the lethality [2]?
**A.** non-lethal
